Results from patent US20260315552A1, “COMBINATION OF VITAMINS, 2'-FUCOSYLLACTOSE AND A PROBIOTIC FOR ENHANCING BONE GROWTH AND/OR BONE STRENGTH” (SOCIÉTÉ DES PRODUITS NESTLÉ S.A., priority 2023, published 2026).

Tests used:
[1] = tested on: osteocalcin (Ocn) in pre-osteoblastic cell line MC3T3-E1 subclone 4; experiment: Osteocalcin mRNA levels (qPCR); type: cell-based; details: 21 days of differentiation, without ascorbic acid; MK-7 3 μM, VitA 100 nM, VitD 1 nM; FIG. 1B
Protocol: (§1) (A) ALP activity after 7 days of differentiation (without ascorbic acid). (B) Osteocalcin mRNA levels after 21 days of differentiation (without ascorbic acid). (C) Osteocalcin mRNA levels after 28 days of differentiation (with ascorbic acid). Pos=positive control; Neg=negative control; MK-7=supplemented with 3 μM menaquinone-7; VitD=supplemented with 1 nM 1α,25-Dihydroxyvitamin D3; VitA=supplemented with 100 nM all-trans-retinoic acid.
The pre-osteoblastic cell line MC3T3-E1 subclone 4 (CRL-2593) was purchased from ATCC (Manassas; Virginia, USA). Cells were maintained in growth medium (GM) composed of ascorbic acid-free αMEM (ThermoFisher Scientific), supplemented with 10% fetal calf serum (FCS, ThermoFisher Scientific) and 1% penicillin/streptomycin. All culture media were refreshed every 2-3 days. Cells were passaged with trypsin/EDTA solution at less than 80% confluence. To induce differentiation into osteoblasts, cells were seeded at 5×10^4 cells/cm^2 and grown to confluency in GM for 24 h. Then, the medium was switched to differentiation medium (DM) composed of GM supplemented with 10 mM β-glycerophosphate and treatment solutions of interest. Ascorbic acid 50 μg/ml was also added to the DM depending on the experiment.
MC3T3-E1 subclone 4 cells were differentiated for 21 days (in DM without ascorbic acid except for the positive control) or 28 days (in DM containing ascorbic acid). Cells were then collected for gene expression analysis. RNA was extracted using the RNeasy plus mini kit (Qiagen; Hilden, Germany) with the QIAcube (Qiagen,) according to the manufacturer's instructions. Briefly, cells were lysed in RLT buffer and spun in a QIAshredder column (Qiagen) before being processed by the QIAcube. RNA concentrations were measured using the DropSense96 (TRINEAN, Gentbrugge, Belgium).
cDNAs were synthetized using High-Capacity cDNA Reverse Transcription Kit (AppliedBiosystems; Waltham, Massachusetts, USA) according to the manufacturer's instructions. […] The relative gene expression was evaluated via the 2^-ΔCt method.

[2] = tested on: pre-osteoblastic cell line MC3T3-E1 subclone 4; experiment: Osteoblast alkaline phosphatase (ALP) activity; type: cell-based; details: 7 days of differentiation, without ascorbic acid; MK-7 3 μM, VitA 100 nM all-trans-retinoic acid, VitD 1 nM 1α,25-Dihydroxyvitamin D3; FIG. 1A
Protocol: as §1
ALP activity after 7 days of differentiation (without ascorbic acid). […]
The effect of SCFAs was further investigated. Three mixes of 75% acetate, 20% propionate, 5% butyrate were evaluated to mimic normal physiological conditions (20 μM SCFAs), physiological conditions following prebiotic supplementation (50 μM SCFAs), and physiological conditions following synbiotic supplementation (60 μM SCFAs). […]
After 7 days of differentiation, cells were then collected for alkaline phosphatase (ALP) activity measurement as described previously with minor modifications. […] Enzymatic reaction was monitored at 405 nm after 4-Nitrophenyl phosphate disodium salt hexahydrate addition. Michaelis-Menten kinetics were evaluated at 30° C. for 30 min. […] The activity value was normalized by protein content measured via the Pierce BCA Protein Assay Kit (ThermoFisher Scientific) according to the manufacturer's instructions.

SMILES	effect on osteocalcin expression [1]	effect on ALP activity (marker of osteoblast differentiation) [2]
CC1=C(/C=C/C(C)=C/C=C/C(C)=C/C(=O)O)C(C)(C)CCC1 [vitamin A, all-trans-retinoic acid]	no significant effect	
C=C1/C(=C\C=C2/CCC[C@]3(C)[C@@H]([C@H](C)CCCC(C)(C)O)CC[C@@H]23)C[C@@H](O)C[C@@H]1O [vitamin D, 1α,25-Dihydroxyvitamin D3]	no significant effect	
CC(C)=CCC/C(C)=C/CC/C(C)=C/CC/C(C)=C/CC/C(C)=C/CC/C(C)=C/CC/C(C)=C/CC1=C(C)C(=O)c2ccccc2C1=O [vitamin K2, menaquinone-7]	significant effect	no significant effect
